Experimental data published in US9005670B2, “Use of histone acetyltransferase inhibitors as novel anti-cancer therapies” (The Johns Hopkins University, priority 2010, dated 2015).

What was measured:
NIH3T3 cells = assay: NIH3T3 cell proliferation; type: cell-based
Description: Cells were treated for 24 hours and proliferation was measured via ^3H-thymidine incorporation pre- and post-treatment. Data for each cell line were normalized to ^3H counts measured pre-treatment. […] Ac-DDDD-Tat is a control peptide for Lys-CoA-Tat. WM35, WM983A, and 1205Lu are melanoma cell lines representing three stages of cancer progression: radial, vertical, and metastatic, respectively.

[1] = test system: three melanoma and three non-small cell lung cancer lines; assay: 3H-thymidine incorporation, melanoma and lung cancer lines; type: cell-based, human; conditions: 24 hours; C646 10 μM, Lys-CoA-Tat 25 μM
From the text: The following cell lines were used: WM35 (melanoma), WM983A (melanoma), 1205Lu (melanoma), H23 (NSCLC), H838 (NSCLC), and H1395 (NSCLC). Melanoma cells were maintained in Dulbecco's Modified Eagle Medium. NSCLCs were maintained in RPMI Medium 1640. Both types of media were supplemented with 10% fetal bovine serum (FBS), penicillin-streptomycin, and L-glutamine. Media, pen-strep, and L-glutamine were purchased from Invitrogen. FBS was purchased from Gemini Bio-Products (#100106). […] Compound stocks (10-20 mM in anhydrous DMSO) were directly added to culture media at desired concentrations. DMSO concentration was kept constant at 0.2% between different treatment conditions. Cells were seeded in 96-well plates at ˜5000 cells per well on average, depending on each cell line's doubling time. After attachment, cells were treated with p300 inhibitors, control compounds, or DMSO for 24 h. After treatment, ^3H-thymidine (1 mCi/ml stock) was added to media at 10 μCi/ml final concentration. Cells were incubated for an additional 5 hours, then trypsinized and collected onto a filter mat using a Cell Harvester (PerkinElmer). Radioactivity was measured with a MicroBeta plate reader (PerkinElmer). Each sample was tested in triplicate.

[2] = test system: NCI-60 panel of tumor cell lines; assay: NCI-60 DTP human tumor cell line screen; type: cell-based; conditions: 48 hours
Description: The in vitro cancer screen was performed at the National Cancer Institute as described in detail at http://dtp.nci.nih.gov/branches/btb/ivelsp.html.
Briefly, cells were plated in 96 well plates at a concentration of 5,000-40,000 cells/well. […] Using the absorbance measurements [time zero, (Tz), control growth, (C), and test growth in the presence of drug at the five concentration levels (Ti)], the percentage growth was calculated at each of the drug concentrations levels. Percentage growth inhibition was calculated as: [(Ti−Tz)/(C−Tz)]×100 for concentrations for which Ti≧Tz [(Ti−Tz)/Tz]×100 for concentrations for which Ti<Tz where Tz is time zero, C is control growth, and Ti is test growth in the presence of drug at the five concentration levels.

[3] = test system: histone H3 and H4 acetylation in C3H 10T1/2 mouse fibroblasts; assay: histone acetylation Western blot in mouse cells; type: cell-based; conditions: 25 μM, 1-3 hours
From the text: Histones in mammalian cells show characteristic rates of turnover of acetylation, with a majority showing slower rates and a very minor fraction showing very fast turnover. This latter fraction has been associated with gene activation, and is defined by rapid hyperacetylation in the presence of deacetylase inhibitors such as Trichostatin A (TSA). In addition to SDS gels (FIG. 9A), Acid-Urea gels (AU, FIG. 9B) were used, on which loss of a positive charge upon lysine acetylation retards migration, producing a ladder of bands corresponding to integral changes in acetylation.
C3H 10T1/2 mouse fibroblasts were grown in DMEM with 10% FCS at 37° C. with 5% CO2. Confluent cultures were rendered quiescent in DMEM with 0.5% FCS for 18-20 h prior to treatment. […] Antibodies were used at the following concentrations: total H3 (1:10000; ab7834; Abcam); H4K12ac (1:2500; 06-761; Upstate). Rabbit anti-H3K9ac (1:10000) antibodies were generated in-house. Histones were isolated from cells by acid extraction, separated by SDS and acid-urea polyacrylamide gel electrophoresis and analyzed by Western blotting.

WM983A melanoma cells = assay: 3H-thymidine incorporation, WM983A; conditions: Homo sapiens, read-out: IC50 (proliferation, 3H-thymidine incorporation)
[4] = test system: cyclin A in melanoma cells; assay: cyclin A protein expression, Western blot; type: cell-based; conditions: 10-20 μM C646
From the text: FIGS. 19A and 19B show the effects of p300/CBP HAT inhibition on cyclin A protein expression in melanoma cells.
Cyclin A is involved in two cell cycle checkpoints. Cyclin A associates with cdk2 to promote S phase progression, and then it associates with cdc2 during the G2 phase.

[5] = target: AANAT (arylalkylamine N-acetyltransferase) (Ovis aries, UniProt Q29495); assay: AANAT coupled spectrophotometric assay; type: biochemical; conditions: 10 μM compound; read-out: Percent inhibition of acetyltransferase, AANAT
AANAT (arylalkylamine N-acetyltransferase), sequence (Q29495 whole entry): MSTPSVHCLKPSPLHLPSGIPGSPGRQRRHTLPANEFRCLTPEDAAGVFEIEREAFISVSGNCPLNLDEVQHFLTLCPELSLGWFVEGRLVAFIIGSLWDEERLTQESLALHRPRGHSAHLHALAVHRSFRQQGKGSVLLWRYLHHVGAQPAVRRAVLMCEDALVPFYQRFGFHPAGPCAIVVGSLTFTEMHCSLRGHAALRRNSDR

U87 glioblastoma cells = assay: AlamarBlue growth inhibition, U87; type: cell-based; conditions: U87, 72 hours
Description: Dose response curves were generated using the AlamarBlue® assay (Invitrogen, Carlsbad, Calif.).
When inhibition was assessed using the AlamarBlue® assay (Invitrogen, Carlsbad, Calif.), cells were initially seeded at 500 cells per well in a 96-well plate. AlamarBlue® is a non-toxic reagent that measures cellular metabolic activity. Its main ingredient is resazurin, a non-fluorescent indicator dye that is reduced to bright red-fluorescent resorufin in metabolically active cells. AlamarBlue® was added to growth medium at 1/10 of the total volume (e.g., 20 μl in 200 μl total volume). […] Fluorescence reading was taken from the same plate every day for 5 days to ensure that the saturation point was not reached. Fluorescence intensity is proportional to the number of live cells in the plate.

[6] = reaction with beta-mercaptoethanol (absorbance spectrum); type: physicochemical; conditions: 10 mM beta-mercaptoethanol, up to one hour
[7] = test system: melanoma cell lines from varying stages of progression; assay: 3H-thymidine incorporation, melanoma lines of varying stages; type: cell-based; conditions: 24 hours
Description: Proliferation was measured via ^3H-thymidine incorporation.

WM35 melanoma cells = assay: apoptosis, annexin V and propidium iodide FACS; type: cell-based, human; conditions: 72 hours, low serum concentrations
Description: FIG. 14A includes scatter plots. […] WM35 melanoma cells were also treated with camptothecin as a positive control for apoptosis. FIGS. 14B and 14C include images of the treated cells stained for senescence-associated beta galactosidase.

Mel-1 melanoma cells = assay: combination with chemotherapy, total cell number; type: cell-based; conditions: 2 μM C646, 24 hours before chemotherapy agent
Description: The cells were grown for 24 hours in medium. The cells were given fresh medium and either 1 μM of cisplatin or 200 μM of temozolamide was added. Total cell number was counted on Day 0, at 24 hours, and 48 hours after addition of cisplatin or temozolamide.
After 24 hours, the treated and mock-treated cells were given fresh medium, and the cells were treated with cisplatin or temozolamide for 48 hours.

For `CC1=NN(c2ccc(C(=O)O)cc2)C(=O)C1=Cc1ccc(-c2cc(C)c(C)cc2[N+](=O)[O-])o1` [Compound C646, 4-(4,5-dihydro-3-methyl-4-((5-(4,5-dimethyl-2-nitrophenyl)furan-2-yl)methylene)-5-oxopyrazol-1-yl)benzoic acid], the “effect on cell proliferation” value (NIH3T3 cells) was “does not have a significant inhibitory effect”, the 3H-thymidine incorporation [1] was “capable of reducing ^3H-thymidine incorporation in several of these human cancer lines” and the “growth inhibition / cell death” value [2] was “significant growth inhibition and/or tumor cell death”. For the same compound, the “basal acetylation levels of H3 and H4” value [3] was “slightly diminished”, the “TSA-inducible acetylation of histones H3 and H4” value ([3]; TSA 33 nM final 30 min) was “virtually completely inhibited” and the IC50 (WM983A melanoma cells) was 10 to 20 µM. The “cyclin A protein level” value [4] was “decreases after C646 treatment in a dose-dependent fashion”, the inhibition at 10 µM [5] was < 10% and the IC50 (U87 glioblastoma cells) was 15.1 µM. For the same compound, the “reaction with thiol (adduct formation)” value [6] was “no evidence of reaction”, the 3H-thymidine incorporation [7] was “reduced ^3H-thymidine incorporation” and the apoptosis (WM35 melanoma cells) was “induced WM35 cell apoptosis”. The sensitization to chemotherapy (Mel-1 melanoma cells) was “sensitized the melanoma cells to temozolamide”.
